From patent publication US4876284A, “1-alkyl-2-aminotetralin derivatives” (Per Arvid Emil Carlsson, priority 1981, dated 1989)
“Also recorded” adds a separate entry of the source.

Legend:
[1] = tested on: postsynaptic DA receptors; assay: Antagonism of the reserpine plus α-methyl-para-tyrosine-induced immobility (neuroleptic syndrome) in rats; motor activity; details: for Motor activity: reserpine 10 mg/kg + α-methyl-para-tyrosine 250 mg/kg i.p., means ± s.e.m.; for motor response / postsynaptic DA-receptor stimulatory effects: comparative study, Table II, s.c.
DA autoreceptors = assay: Spontaneous locomotor activity in non-pretreated rats; type: in vivo, rat; details: for Locomotor activity / effect on locomotor activity, in words: non-pretreated rats
Description: Untreated animals exposed to a new environment display an initial high motor activity which then gradually declines over a period of time. Administration of DA-receptor agonists (e.g. apomorphine) in doses where preferential autoreceptor stimulation is likely to occur, causes a depression of the spontaneous motility mentioned above, considered to be due to the DA autoreceptor-medicated attenuation of central DA transmission.
Rats (150-300 g) were injected subcutaneously with compound 2,5-OH-DPAT or apomorphine and after 5 minutes they were individually placed in motility boxes ("M/P 40 Fc Electronic Motility Meter". Motron Products, Stockholm) and the motor activity (0-30 min) was quantified. […] These findings are in congruence with the results obtained with the selective DA-autoreceptor agonist 3-PPP [S. Hjorth t al., Life Sciences, 28, 1225 (1981)] but in sharp contrast to the results obtained with 5-OH-DPAT and apomorphine (Table III).
Non-pretreated rats were given compound -2 (0.0625-16.0 mg/kg),
5OH--2-(di-n-propylamino) tetralin (5OH--DPAT; 0.0125-0.05 mg/kg,
apomorphine (0.1-1.0 mg/kg) or saline subcutaneously. Five minutes later
they were placed individually into motility meters and the locomotor

[2] = tested on: brain 5-HT synthesis rate; assay: Formation of 5-hydroxytryptophan in rat brain regions (non-pretreated rats, NSD 1015); type: in vivo; design: formation of 5-hydroxytryptophan, Limbic forebrain / formation of 5-hydroxytryptophan, Striatum / formation of 5-hydroxytryptophan, Diencephalon / formation of 5-hydroxytryptophan, Brain-stem: unit not given here; details: for formation of 5-hydroxytryptophan, Brain-stem / formation of 5-hydroxytryptophan, Diencephalon / formation of 5-hydroxytryptophan, Hemispheral (cortical) parts / formation of 5-hydroxytryptophan, Limbic forebrain / formation of 5-hydroxytryptophan, Striatum: mean ± sem
Description: (§1) Immediately thereafter the animals were removed from the boxes. Part of
(§2) the animals were injected with NSD 1015 (100 mg/kg i.p.) and after a
(§3) further 30 min they were killed, the brains rapidly dissected and taken
(§4) for determination of the Dopa and 5HTP levels in different areas of the […]

[3] = tested on: central DA-receptor (pre- and/or postsynaptic); assay: Rat-brain in-vivo tyrosine hydroxylation: Dopa accumulation after NSD 1015 in reserpine-pretreated rats
Description: The compounds under evaluation were tested biochemically for central DA-receptor (pre- and/or postsynaptic) stimulating activity. The concept of this biochemical screening method is that a DA-receptor agonist will stimulate the receptor and through regulatory feedback systems effect a decline in tyrosine hydroxylase activity and thus a subsequent reduction in the synthesis rate for DA in the presynaptic neuron. Dopa formation, as determined after in-vivo inhibition of the aromatic L-amino acid decarboxylase with NSD 1015 (3-hydroxybenzyl-hydrazine hydrochloride), is taken as an indirect measure of DA synthesis rate.
Rats (150-300 g) pretreated with reserpine were given the compounds under evaluation. Gross behavioural observations (changes in motility, stereotypies etc.) were made in order to evaluate possible postsynaptic dopamine receptor activity. subsequent administration of NSD 1015, decapitation, brain dissection [corpora striata, limbic fore-brain and rest of the hemispheral parts (cortex)]homogenization, centrifugation, ion-exchange chromatography and spectro-fluorimetric measurements (all as described in detail by Wikstrom et al., in J. Med. Chem. 21, 864-867, 1978 and references cited therein), gave the actual Dopa levels.
Several doses (n=4-6) were tested in order to obtain dose-response curves for each compound and brain area. The dose of a compound producing a half-maximal decrease in the Dopa level in the rat brain part was then estimated. These values (ED50) are presented in Table I. (Simultaneous determination of the 5-HTP levels was also performed utilizing the same paradigm.)
^b Rats pretreated with reserpine (10 mg/kg i.p.; 18 h) were given th
compounds under evaluation. Fortyfive minutes later they were injected
with NSD 1015 (100 mg/kg i.p.) and after a further 30 min they were
decapitated, the brains rapidly dissected and taken for determination of
the Dopa and 5HTP levels in different areas of the brain. The dose of a
compound producing a halfmaximal decrease (ED50) in the Dopa level i
the rat brain part was then estimated from doseresponse curves comprising
4-6 dose levels. (For further details see the text and references).

brain DA synthesis rate = assay: Formation of Dopa in rat brain regions (non-pretreated rats, NSD 1015); type: in vivo; design: formation of Dopa, Limbic forebrain / formation of Dopa, Striatum / formation of Dopa, Diencephalon / formation of Dopa, Brain-stem: unit not given here; details: for formation of Dopa, Brain-stem / formation of Dopa, Diencephalon / formation of Dopa, Hemispheral (cortical) parts / formation of Dopa, Limbic forebrain / formation of Dopa, Striatum: mean ± sem
Description: as §1, §2, §3, §4

[4] = tested on: central DA-receptor (pre- and/or postsynaptic); details: reserpine-pretreated rats, s.c., cited from earlier work
autoreceptor = details: low doses; cited from earlier work
[5] = reserpine and α-methyl-para-tyrosine pretreated rats

Compound: Br.CCCN(CCC)[C@H]1CCc2c(O)cccc2[C@H]1C (relative stereo) [Compound 2, cis-5-Hydroxy-1-methyl-2-(di-n-propylamino) tetralin hydrobromid]
- Motor activity ([1]; 10 mg/kg s.c.): 52 ± 5 counts 0-60 min
- motor response / postsynaptic DA-receptor stimulatory effects [1]: failed to elicit a motor response that differed more than slightly from control values
- antagonism of the reserpine-induced syndrome / behaviour elicited [1, 5]: inability of compound 2 to antagonize the reserpine-induced syndrome
- postsynaptic DA-receptor stimulation [1, 5]: compound 2 is not
- Locomotor activity (DA autoreceptors; 0.0625 mg/kg s.c.): 146 ± 4 counts 0.30 min
- Locomotor activity (DA autoreceptors; 0.25 mg/kg s.c.): 117 ± 11 counts 0.30 min
- Locomotor activity (DA autoreceptors; 1.0 mg/kg s.c.): 82 ± 8 counts 0.30 min
- Locomotor activity (DA autoreceptors; 4.0 mg/kg s.c.): 62 ± 5 counts 0.30 min
- Locomotor activity (DA autoreceptors; 16.0 mg/kg s.c.): 63 ± 9 counts 0.30 min
- maximal decrease of the initial high motor activity from control values (DA autoreceptors; at about 4 mg/kg s.c., 0-30 min): 70%
- effect on locomotor activity, in words (DA autoreceptors; s.c.): clear and significant dose-dependent decrease of the initial high motor activity; also recorded: No locomotor stimulation is ever seen
- dose at which the maximal effect on motor activity is attained (DA autoreceptors; s.c., 0-30 min): about 4 mg/kg
- formation of 5-hydroxytryptophan, Brain-stem ([2]; 0.0625 mg/kg s.c.): 98 ± 4
- formation of 5-hydroxytryptophan, Diencephalon ([2]; 0.0625 mg/kg s.c.): 196 ± 8
- formation of 5-hydroxytryptophan, Hemispheral (cortical) parts ([2]; 0.0625 mg/kg s.c.): 40 ± 3
- formation of 5-hydroxytryptophan, Limbic forebrain ([2]; 0.0625 mg/kg s.c.): 314 ± 15
- formation of 5-hydroxytryptophan, Striatum ([2]; 0.0625 mg/kg s.c.): 458 ± 17
- formation of 5-hydroxytryptophan, Brain-stem ([2]; 0.25 mg/kg s.c.): 96 ± 11
- formation of 5-hydroxytryptophan, Diencephalon ([2]; 0.25 mg/kg s.c.): 170 ± 9
- formation of 5-hydroxytryptophan, Hemispheral (cortical) parts ([2]; 0.25 mg/kg s.c.): 46 ± 2
- formation of 5-hydroxytryptophan, Limbic forebrain ([2]; 0.25 mg/kg s.c.): 305 ± 14
- formation of 5-hydroxytryptophan, Striatum ([2]; 0.25 mg/kg s.c.): 448 ± 26
- formation of 5-hydroxytryptophan, Brain-stem ([2]; 1.0 mg/kg s.c.): 96 ± 7
- formation of 5-hydroxytryptophan, Diencephalon ([2]; 1.0 mg/kg s.c.): 170 ± 11
- formation of 5-hydroxytryptophan, Hemispheral (cortical) parts ([2]; 1.0 mg/kg s.c.): 43 ± 3
- formation of 5-hydroxytryptophan, Limbic forebrain ([2]; 1.0 mg/kg s.c.): 291 ± 9
- formation of 5-hydroxytryptophan, Striatum ([2]; 1.0 mg/kg s.c.): 420 ± 30
- formation of 5-hydroxytryptophan, Brain-stem ([2]; 4.0 mg/kg s.c.): 111 ± 8
- formation of 5-hydroxytryptophan, Diencephalon ([2]; 4.0 mg/kg s.c.): 176 ± 10
- formation of 5-hydroxytryptophan, Hemispheral (cortical) parts ([2]; 4.0 mg/kg s.c.): 47 ± 2
- formation of 5-hydroxytryptophan, Limbic forebrain ([2]; 4.0 mg/kg s.c.): 267 ± 6
- formation of 5-hydroxytryptophan, Striatum ([2]; 4.0 mg/kg s.c.): 479 ± 9
- formation of 5-hydroxytryptophan, Brain-stem ([2]; 16.0 mg/kg s.c.): 118 ± 4
- formation of 5-hydroxytryptophan, Diencephalon ([2]; 16.0 mg/kg s.c.): 214 ± 13
- formation of 5-hydroxytryptophan, Hemispheral (cortical) parts ([2]; 16.0 mg/kg s.c.): 48 ± 3
- formation of 5-hydroxytryptophan, Limbic forebrain ([2]; 16.0 mg/kg s.c.): 272 ± 20
- formation of 5-hydroxytryptophan, Striatum ([2]; 16.0 mg/kg s.c.): 478 ± 10
- effect on brain 5-HT synthesis rate, in words ([2]; non-pretreated rats, s.c.): without any concomitant change in brain 5-HT synthesis rate
- Dopa-accumulation; ED50, Limbic ([3]; limbic forebrain, reserpine-pretreated rats, half-maximal decrease in Dopa level, s.c.): 0.67 μmol/kg s.c.
- Dopa-accumulation; ED50, Striatum ([3]; striatum, reserpine-pretreated rats, half-maximal decrease in Dopa level, s.c.): 0.80 μmol/kg s.c.
- potency relative to 3-PPP (times more potent) ([3]; versus 3-PPP, Dopa accumulation): approximately 5 times
- comparative potency, in words ([3]; versus trans-1-CH3-5-OH-DPAT, 5-OH-DPAT, apomorphine, Dopa accumulation): equipotent to trans-1-CH3 -5-OH-DPAT; also recorded: less potent than 5-OH-DPAT; also recorded: of the same order of potency as apomorphine
- formation of Dopa, Brain-stem (brain DA synthesis rate; 0.0625 mg/kg s.c.): 177 ± 10
- formation of Dopa, Diencephalon (brain DA synthesis rate; 0.0625 mg/kg s.c.): 148 ± 5
- formation of Dopa, Hemispheral (cortical) parts (brain DA synthesis rate; 0.0625 mg/kg s.c.): 66 ± 2
- formation of Dopa, Limbic forebrain (brain DA synthesis rate; 0.0625 mg/kg s.c.): 114 ± 6
- formation of Dopa, Striatum (brain DA synthesis rate; 0.0625 mg/kg s.c.): 65 ± 4
- formation of Dopa, Brain-stem (brain DA synthesis rate; 0.25 mg/kg s.c.): 170 ± 6
- formation of Dopa, Diencephalon (brain DA synthesis rate; 0.25 mg/kg s.c.): 144 ± 2
- formation of Dopa, Hemispheral (cortical) parts (brain DA synthesis rate; 0.25 mg/kg s.c.): 63 ± 2
- formation of Dopa, Limbic forebrain (brain DA synthesis rate; 0.25 mg/kg s.c.): 116 ± 3
- formation of Dopa, Striatum (brain DA synthesis rate; 0.25 mg/kg s.c.): 71 ± 5
- formation of Dopa, Brain-stem (brain DA synthesis rate; 1.0 mg/kg s.c.): 167 ± 8
- formation of Dopa, Diencephalon (brain DA synthesis rate; 1.0 mg/kg s.c.): 134 ± 7
- formation of Dopa, Hemispheral (cortical) parts (brain DA synthesis rate; 1.0 mg/kg s.c.): 60 ± 1
- formation of Dopa, Limbic forebrain (brain DA synthesis rate; 1.0 mg/kg s.c.): 107 ± 5
- formation of Dopa, Striatum (brain DA synthesis rate; 1.0 mg/kg s.c.): 75 ± 6
- formation of Dopa, Brain-stem (brain DA synthesis rate; 4.0 mg/kg s.c.): 170 ± 5
- formation of Dopa, Diencephalon (brain DA synthesis rate; 4.0 mg/kg s.c.): 137 ± 3
- formation of Dopa, Hemispheral (cortical) parts (brain DA synthesis rate; 4.0 mg/kg s.c.): 59 ± 2
- formation of Dopa, Limbic forebrain (brain DA synthesis rate; 4.0 mg/kg s.c.): 113 ± 3
- formation of Dopa, Striatum (brain DA synthesis rate; 4.0 mg/kg s.c.): 72 ± 4
- formation of Dopa, Brain-stem (brain DA synthesis rate; 16.0 mg/kg s.c.): 170 ± 8
- formation of Dopa, Diencephalon (brain DA synthesis rate; 16.0 mg/kg s.c.): 137 ± 5
- formation of Dopa, Hemispheral (cortical) parts (brain DA synthesis rate; 16.0 mg/kg s.c.): 59 ± 2
- formation of Dopa, Limbic forebrain (brain DA synthesis rate; 16.0 mg/kg s.c.): 108 ± 5
- formation of Dopa, Striatum (brain DA synthesis rate; 16.0 mg/kg s.c.): 73 ± 4
- effect on brain DA synthesis rate, in words (brain DA synthesis rate; non-pretreated rats, s.c.): significant decrease in rate brain DA synthesis rate; also recorded: marked difference in response between the limbic forebrain and the striatal structures

Compound: CN1CCc2cccc3c2[C@H]1Cc1ccc(O)c(O)c1-3 [Apomorphine]
- Dopa-accumulation; ED50, Limbic (taken from Hacksell et al., J. Med. Chem. 22, 1469 (1979)) ([4]; limbic forebrain): 0.19 μmol/kg s.c.
- Dopa-accumulation; ED50, Striatum (taken from Hacksell et al., J. Med. Chem. 22, 1469 (1979)) ([4]; striatum): 0.22 μmol/kg s.c.
- Motor activity ([1]; 1 mg/kg s.c.): 517 ± 56 counts 0-60 min
- motor response / postsynaptic DA-receptor stimulatory effects [1]: strong central postsynaptic DA-receptor stimulatory effects
- antagonism of the reserpine-induced syndrome / behaviour elicited [1, 5]: pronounced stereotyped and hyperactive behaviour
- Locomotor activity (DA autoreceptors; 0.1 mg/kg s.c.): 134 ± 9 counts 0.30 min
- Locomotor activity (DA autoreceptors; 1.0 mg/kg s.c.): 439 ± 67 counts 0.30 min
- effect on locomotor activity, in words (DA autoreceptors; s.c.): lower doses significantly suppressing and higher dosess significantly stimulating the rat locomotor activity
- effects demonstrated in man (autoreceptor): "paradoxical" antipsychotic and antidyskinetic effects
